In the assay the target is γ-aminobutyric acid type A (GABAA) receptor α1β2γ2L (Homo sapiens, UniProt P14867+P47870). As to the kind of experiment: two-electrode voltage clamp in oocytes. The format is cell-based. As to conditions: read-out: % enhancement of EC5-10 GABA current at 8 μM.
Sequence of γ-aminobutyric acid type A (GABAA) receptor α1β2γ2L (P47870 26-512): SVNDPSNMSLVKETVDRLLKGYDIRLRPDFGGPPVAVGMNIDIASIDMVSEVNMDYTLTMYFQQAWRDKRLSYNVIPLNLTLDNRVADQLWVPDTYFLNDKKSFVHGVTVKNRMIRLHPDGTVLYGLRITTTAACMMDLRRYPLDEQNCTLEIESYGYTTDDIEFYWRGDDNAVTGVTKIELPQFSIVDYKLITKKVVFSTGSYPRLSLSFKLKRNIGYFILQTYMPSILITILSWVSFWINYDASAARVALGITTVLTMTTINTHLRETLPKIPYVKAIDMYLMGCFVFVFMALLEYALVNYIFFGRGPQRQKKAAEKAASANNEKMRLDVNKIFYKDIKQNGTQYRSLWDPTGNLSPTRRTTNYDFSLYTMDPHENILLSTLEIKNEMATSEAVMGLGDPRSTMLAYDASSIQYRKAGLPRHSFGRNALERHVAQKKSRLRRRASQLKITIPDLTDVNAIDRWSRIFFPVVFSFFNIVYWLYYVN
Sequence of γ-aminobutyric acid type A (GABAA) receptor α1β2γ2L (P14867 28-456): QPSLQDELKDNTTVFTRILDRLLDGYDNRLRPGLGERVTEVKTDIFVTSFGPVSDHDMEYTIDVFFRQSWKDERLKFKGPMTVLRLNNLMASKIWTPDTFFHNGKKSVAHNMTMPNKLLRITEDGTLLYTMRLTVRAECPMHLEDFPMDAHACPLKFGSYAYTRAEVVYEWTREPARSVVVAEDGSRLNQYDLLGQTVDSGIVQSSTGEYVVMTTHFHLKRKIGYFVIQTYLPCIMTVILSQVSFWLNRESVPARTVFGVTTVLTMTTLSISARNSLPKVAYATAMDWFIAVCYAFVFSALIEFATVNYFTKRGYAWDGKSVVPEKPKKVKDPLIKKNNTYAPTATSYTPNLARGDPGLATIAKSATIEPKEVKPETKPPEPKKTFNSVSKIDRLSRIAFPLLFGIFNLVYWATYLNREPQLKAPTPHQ
Sequence of γ-aminobutyric acid type A (GABAA) receptor α1β2γ2L (P18507 40-475 partner): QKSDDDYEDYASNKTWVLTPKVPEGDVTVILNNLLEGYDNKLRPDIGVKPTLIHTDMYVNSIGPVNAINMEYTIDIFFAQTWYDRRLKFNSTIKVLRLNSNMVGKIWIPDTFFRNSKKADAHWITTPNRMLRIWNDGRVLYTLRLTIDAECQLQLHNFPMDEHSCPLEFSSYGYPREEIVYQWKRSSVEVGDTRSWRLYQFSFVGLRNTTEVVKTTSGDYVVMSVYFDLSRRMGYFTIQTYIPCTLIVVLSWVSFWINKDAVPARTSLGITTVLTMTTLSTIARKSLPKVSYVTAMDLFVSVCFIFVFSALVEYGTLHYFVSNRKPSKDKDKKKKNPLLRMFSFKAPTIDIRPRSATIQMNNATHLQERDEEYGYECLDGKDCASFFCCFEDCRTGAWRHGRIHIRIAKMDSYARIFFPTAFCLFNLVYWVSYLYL

As to `COC(=O)CCOC(=O)c1cncn1[C@H](C)c1ccccc1` [compound 3, (R)-3-methoxy-3-oxopropyl1-(1-phenylethyl)-1H-imidazole-5-carboxylate], the activation at 8 µM came out at 450 ± 130%.

For the origin of these results see publication PMC2739411 (Anesthesiology, 2009).
